Experimental findings from PMC11595864, “Design, Synthesis, and Evaluation of Novel Thiazole-Containing Algicides Inspired by Bacillamide A” (Marine Drugs, 2024) are described below.

Data set [1] has as its system P. minimum. The data set is described as follows: Algicidal activity assay, EC50. Format: cell-based, Prorocentrum minimum. Conditions: for EC50: Prorocentrum minimum, read-out: EC50 P. minimum. As for the experimental part:
(§1) P. minimum, A. pacificum, and S. costatum were purchased from Guangyu Biological Technology Co., Ltd. (Shanghai, China). The algae strain was cultured in F/2 medium ((12 h light: 12 h dark cycle), 20 ± 1 °C, 70 μmol m^−2 s^−1). Purchased algae were transferred to sterile conical flasks for culture; after the algae proliferation was stabilized, the expanded culture was next carried out following standard conditions.
(§2) Copper sulfate and Diuron were used as the positive controls. EC50 values were calculated according to the equation of the quantity–effect relationship in Equation (2) using the Hill model of Graph Pad Prism software (8.0.2). (2) Y=Bottom+(Top-Bottom)/1+10^(Log EC50-X)×Hill Slope
(§3) The X and Y values represent the concentration (mg/L) and response values of the control and experimental groups, respectively. The Top, Bottom, and Hill Slope represent the maximum response, minimum response, and the curve slope, respectively. The EC50 represents half of the maximum effective concentration.

For data set [2], the system named is A. pacificum. The data set is described as follows: Algicidal activity assay, EC50. The data set is classed as cell-based, Alexandrium pacificum. Conditions: Mean ± SD, n = 3; for EC50: Alexandrium pacificum. Here is the method:
as §1, §2, §3

Data set [3] has as its system S. costatum. The data set is described as follows: Growth-inhibition rate measurement at 50 mg/L, 24 h. The data set is classed as cell-based, Skeletonema costatum. The following applies: for inhibition at 50 µg/mL: Skeletonema costatum, read-out: inhibition rate against S. costatum. Here is the method:
as §1
(§4) The stock solutions of bacillamide A and different BDs were prepared in dimethyl sulfoxide (DMSO) with the requisition amount. […] The controls received the same volume of DMSO. The inhibitory activities of bacillamide A, different BDs, and positive controls were screened by 96 well microtiter plates at different concentrations. Inhibition ratios (IRs) of cupric sulfate (50 mg/L, positive control), bacillamide A (50 mg/L), and BDs (50 mg/L) were calculated on algae using Equation (1). (1) IR=Cc0-Cex/Cc0×100%
(§5) The CC0 and Cex, respectively, represent the algal densities of the control and experimental groups.

The test system of another data set is zebrafish. Put plainly: Zebrafish acute toxicity assay. Format: in vivo. Conditions: zebrafish. Here is the method: Zebrafish acute toxicity of bacillamide A and synthesized BDs were evaluated at 0.1 mg/L, 1 mg/L, and 10 mg/L, respectively. Diuron and CuSO4 were used as positive controls. The commercial zebrafish (body length > 3.0 cm) were domesticated in aerated tap water for 24 h, fed once daily for seven consecutive days, and stopped being fed before the experiment.
4. Acute toxicity table S1.
Compound Concentration Survival percent Acute
aAccording to the Guide for Environmental Safety Assessment of Chemical Pesticides
4 groups and treated with different compounds for 96 h.

Data set [4] relates to S. costatum. Put plainly: Algicidal activity assay, EC50. Format: cell-based, Skeletonema costatum. The following applies: for EC50: Skeletonema costatum, read-out: EC50 S. costatum. Here is the method:
as §1, §2, §3

For data set [5], the system named is A. pacificum. The data set is described as follows: Growth-inhibition rate measurement at 50 mg/L, 24 h. The data set is classed as cell-based, Alexandrium pacificum. The following applies: for inhibition at 50 µg/mL: Alexandrium pacificum, read-out: inhibition rate against A. pacificum. As for the experimental part: as §1, §4, §5
For data set [6], the system named is P. minimum. The data set is described as follows: Growth-inhibition rate measurement at 50 mg/L, 24 h. Format: cell-based, Prorocentrum minimum. Conditions: for inhibition at 50 µg/mL: Prorocentrum minimum, read-out: inhibition rate against P. minimum. Here is the method:
as §1, §4, §5

Data set [7] deals with S. costatum. The data set is described as follows: ROS level (DCFH-DA fluorescent probe assay). Format: cell-based, Skeletonema costatum. Conditions: 10 mg/L, 72 h. Here is the method: (§6) P. minimum, S. costatum, and A. pacificum cells were cultured in F/2 medium. All flasks were cultivated under 12 h of light: 12 h of dark and 70 μmol m^−2 s^−1 at 20 ± 1 °C. […] Finally, the algal cells were collected and diluted in 6 mL of phosphate buffer (pH = 7.8). A small amount of quartz sand was added into the algal cells under ice bath. The obtained homogenate was next poured into a centrifuge tube and centrifuged at 5000 r/min for 25 min at 4 °C. The obtained supernatant was placed in the refrigerator at 4 °C for the next step experiment.
(§7) The reactive oxygen species (ROS) assay kit was purchased from SolarBio Co., Ltd., Beijing, China. The 2′,7′-dichlorodihydrofluorescein diacetate (DCFH-DA) could be oxidized by reactive oxygen or nitrogen species (ROS/RNS) to generate high fluorescent 2′,7′-dichlorofluoroscein (DCF). DCF could be detected by Cyto-FLEX flow cytometry.

Data set [8] has as its system P. minimum. The data set is described as follows: ROS level (DCFH-DA fluorescent probe assay). The following applies: 10 mg/L, 72 h. Format: cell-based, Prorocentrum minimum. As for the experimental part: as §6, §7

In brackets after ≈: the same amount, converted by molar mass. Like-named read-outs stand apart in the source and are kept apart here.

Broadly, the EC50 is the concentration that produces a half-maximal response. Usually inhibition stands for the relative decrease from the control value, in per cent. `O=C(NCCc1c[nH]c2ccccc12)c1csc(-c2ccccc2)n1` [Compound 6a]: the EC50 in the data set on P. minimum [1] (Mean ± SD, n = 3) stood at 1.74 ± 0.4 µg/mL (≈ 5.01 µM); in the data set with A. pacificum [2] it was 3.32 ± 0.79 µg/mL (≈ 9.56 µM); with S. costatum [4] (Mean ± SD, n = 3), 0.11 ± 0.02 µg/mL (≈ 0.317 µM). Moreover, the inhibition at 50 µg/mL is more than 70% in the data set on S. costatum [3] and 70 to 95% with A. pacificum [5]. Besides, the Survival percent in the data set with zebrafish (0.1 mg/L, 0h) came out at 100; in the data set with zebrafish (0.1 mg/L, 24h) it was 100; in the data set with zebrafish (0.1 mg/L, 48h), 100; with zebrafish (0.1 mg/L, 72h), 100; in the data set with zebrafish (0.1 mg/L, 96h), 100; in the data set with zebrafish (1 mg/L, 0h) it was 100. Moreover, the Survival percent amounted to 83 in the data set on zebrafish (1 mg/L, 24h); 80 in the data set with zebrafish (1 mg/L, 48h); 80 in the data set with zebrafish (1 mg/L, 72h); 73 in the data set on zebrafish (1 mg/L, 96h); 100 in the data set on zebrafish (10 mg/L, 0h); 0 in the data set with zebrafish (10 mg/L, 24h). The Survival percent in the data set with zebrafish (10 mg/L, 48h) amounted to 0; in the data set on zebrafish (10 mg/L, 72h), 0; in the data set with zebrafish (10 mg/L, 96h), 0. For the same molecule, the “fold more potent than CuSO4” value in the data set with S. costatum [4] (from EC50 against S. costatum) is on record as 28 fold. Besides, the “fold more potent than Diuron” value with S. costatum [4] (from EC50 against S. costatum) amounted to 39 fold. In the data set on S. costatum [4] (from EC50 against S. costatum), the “fold more potent than bacillamide A” value was found to be 23 fold.

Usually melting point stands for the temperature, or range, at which the solid turns liquid. For the molecule `O=C(NCCc1c[nH]c2ccccc12)c1csc(-c2ccccc2[N+](=O)[O-])n1` [Compound 6b], the melting point lay within 122 to 123 °C.

The molecule `CCOc1ccc(-c2nc(C(=O)NCCc3c[nH]c4ccccc34)cs2)cc1` [Compound 6c] yielded a melting point of 184 to 185 °C. In addition, the EC50 with P. minimum [1] (Mean ± SD, n = 3) came to 1.29 ± 0.08 µg/mL (≈ 3.3 µM). The EC50 in the data set with A. pacificum [2] was found to be 2.43 ± 0.42 µg/mL (≈ 6.21 µM). Besides, in the data set on S. costatum [3], the “inhibition rate against S. costatum” value was found to be 72.6% and the inhibition at 50 µg/mL is more than 70%. Moreover, the inhibition at 50 µg/mL with P. minimum [6] came to 70.8%. Besides, the EC50 in the data set on S. costatum [4] (Mean ± SD, n = 3) stood at 0.51 ± 0.04 µg/mL (≈ 1.3 µM).

The molecule `O=C(NCCc1c[nH]c2ccccc12)c1csc(-c2cccs2)n1` [Compound 6e] displayed a melting point of 189 to 190 °C.

In the case of `COc1ccc2[nH]cc(CCNC(=O)c3csc(-c4ccccc4)n3)c2c1` [Compound 7b], the melting point fell in the range of 164 to 165 °C. Also, the EC50 in the data set with P. minimum [1] (Mean ± SD, n = 3) worked out at 1.32 ± 0.38 µg/mL (≈ 3.5 µM). The molecule further came in with an EC50 in the data set on A. pacificum [2] of 0.72 ± 0.021 µg/mL (≈ 1.91 µM). Besides, the inhibition at 50 µg/mL with P. minimum [6] is 82.3%. Further, in the data set with S. costatum [4] (Mean ± SD, n = 3), the EC50 was determined as 0.37 ± 0.07 µg/mL (≈ 0.98 µM).

As to `O=C(NCCc1ccccc1)c1csc(-c2ccccc2)n1` [Compound 7c], the EC50 came to 3.38 ± 0.84 µg/mL (≈ 11 µM) in the data set with P. minimum [1] (Mean ± SD, n = 3); 0.53 ± 0.32 µg/mL (≈ 1.72 µM) in the data set with A. pacificum [2]; 0.24 ± 0.058 µg/mL (≈ 0.778 µM) with S. costatum [4] (Mean ± SD, n = 3). The inhibition at 50 µg/mL with P. minimum [6] was 74.7%; in the data set on A. pacificum [5], 70 to 95%.

Turning to `CN(C)CCNC(=O)c1csc(-c2ccccc2)n1` [Compound 7d], the EC50 in the data set with P. minimum [1] (Mean ± SD, n = 3) came out at 3.22 ± 0.39 µg/mL (≈ 11.7 µM); in the data set with A. pacificum [2], 2.02 ± 0.54 µg/mL (≈ 7.34 µM); in the data set on S. costatum [4] (Mean ± SD, n = 3), 0.77 ± 0.21 µg/mL (≈ 2.8 µM). The inhibition at 50 µg/mL in the data set with A. pacificum [5] fell in the range of 70 to 95%.

As to `O=C(Nc1ccccc1)c1csc(-c2ccccc2)n1` [Compound 7e], the 50% effective concentration (EC50) in the data set on P. minimum [1] (Mean ± SD, n = 3) was found to be 3.23 ± 0.39 µg/mL (≈ 11.5 µM); in the data set with A. pacificum [2], 0.69 ± 0.07 µg/mL (≈ 2.46 µM); in the data set with S. costatum [4] (Mean ± SD, n = 3) it was 1.1 ± 0.31 µg/mL (≈ 3.92 µM). For the same molecule, the inhibition at 50 µg/mL with A. pacificum [5] was 70 to 95%.

On to `CC(C)(C)OC(=O)NCCNC(=O)c1csc(-c2ccccc2)n1` [Compound 7f], for which the melting point fell in the range of 162 to 163 °C. The “inhibition rate against P. minimum” value in the data set on P. minimum [6] is on record as “lost most of its algicidal activity”. Besides, in the data set with A. pacificum [5], the “inhibition rate against A. pacificum” value is listed as “lost most of its algicidal activity”.

`NCCNC(=O)c1csc(-c2ccccc2)n1` [Compound 7g]: the melting point is 173 to 174 °C. Moreover, in the data set on P. minimum [1] (Mean ± SD, n = 3), the EC50 was 2.02 ± 0.27 µg/mL (≈ 8.17 µM). In the data set with A. pacificum [2], a half-maximal response (EC50) required 3.42 ± 0.13 µg/mL (≈ 13.8 µM). For the same molecule, the inhibition at 50 µg/mL in the data set with P. minimum [6] came out at 76.9%. The EC50 with S. costatum [4] (Mean ± SD, n = 3) is 2.28 ± 0.37 µg/mL (≈ 9.22 µM).

Take `O=S(=O)([O-])[O-].[Cu+2]` [CuSO4, cupric sulfate anhydrous, reference compound]: the “EC50 P. minimum” value with P. minimum [1] (Mean ± SD, n = 3) stood at 3.61 ± 0.32 µg/mL. Moreover, in the data set with S. costatum [7], the “increase of ROS levels in S. costatum” value is recorded as 7.7 fold. Besides, the “EC50 A. pacificum” value in the data set with A. pacificum [2] amounted to 2.34 ± 0.06 µg/mL. For the same molecule, the Survival percent is listed as 100 in the data set on zebrafish (0.1 mg/L, 0h); 100 in the data set with zebrafish (0.1 mg/L, 24h); 80 with zebrafish (0.1 mg/L, 48h); 73 in the data set with zebrafish (0.1 mg/L, 72h); 73 with zebrafish (0.1 mg/L, 96h); 100 with zebrafish (1 mg/L, 0h). The Survival percent in the data set on zebrafish (1 mg/L, 24h) came to 50; in the data set on zebrafish (1 mg/L, 48h) it was 50; in the data set with zebrafish (1 mg/L, 72h), 43; in the data set on zebrafish (1 mg/L, 96h) it was 43; in the data set with zebrafish (10 mg/L, 0h), 100; in the data set on zebrafish (10 mg/L, 24h), 0. In addition, the Survival percent in the data set on zebrafish (10 mg/L, 48h) is on record as 0; in the data set on zebrafish (10 mg/L, 72h), 0; in the data set on zebrafish (10 mg/L, 96h), 0. Besides, the “EC50 S. costatum” value in the data set with S. costatum [4] (Mean ± SD, n = 3) is 3.12 ± 0.21 µg/mL. Moreover, the “increase of ROS levels in P. minimum” value with P. minimum [8] stood at 9.6 fold.

On to `CN(C)C(=O)Nc1ccc(Cl)c(Cl)c1` [Diuron, reference compound], for which the EC50 in the data set with P. minimum [1] amounted to 4.72 ± 0.41 µg/mL (≈ 20.2 µM); in the data set with A. pacificum [2], 5.69 ± 0.46 µg/mL (≈ 24.4 µM); with S. costatum [4] it was 4.32 ± 0.14 µg/mL (≈ 18.5 µM).
